13 compounds from patent US20110172099A1, “Imidazole and Triazole Compounds, Their Use and Agents Containing the Same” (BASF SE, priority 2008, published 2011) can be followed below.

In the first assay the test system is Phytophthora infestans.
Test: not given
The assay is classed as in vivo. Particulars: tomato, protective, after 6 days, untreated control 90.
For the compound `CC(C)(C)C(O)C(CCCc1ccc(Cl)cc1Cl)n1cncn1` (stereo not shown), the “Infection (%) at 600 ppm C1” value is listed as 7%.
The same measure, in the same setting: with `CC(Cc1ccc(Cl)cc1Cl)CC(C(O)C(C)(C)C)n1cncn1` (stereo not shown) [reference compound] the figure was 90%.

The test system of another assay is Botrytis cinerea. Briefly: C2: gray mold on bell pepper leaves caused by Botrytis cinerea, 1 day protective application (comparison with the prior art). Format: in vivo. Conditions: after 5 days, untreated control 100. The protocol:
The active compounds were prepared separately as a stock solution with 25 mg of active compound, which was made up to 10 ml with a mixture of acetone and/or DMSO and the emulsifier Uniperol® EL (wetting agent with emulsifying and dispersing action based on ethoxylated alkylphenols) in the volume ratio solvent/emulsifier of from 99 to 1. Subsequently, it was made up to 100 ml with water. This stock solution was diluted with the described solvent/emulsifier/water mixture to the active compound concentration indicated below. Alternatively, the active compounds were used as a commercially available ready-to-use solution and diluted with water to the active compound concentration indicated. Bell pepper seedlings were, after 2-3 leaves were well developed, sprayed to run off point with an aqueous suspension having the active compound concentration stated below. The next day, the treated plants were inoculated with a spore suspension of Botrytis cinerea in a 2% biomalt solution. The test plants were then placed in a dark acclimatized chamber at 22 to 24° C. and high atmospheric humidity. After 5 days, the extent of the fungal infection on the leaves could be determined visually in %.
Turning to `CC(C)(C)C(O)C(CCCc1cccc(Cl)c1)n1cncn1` (stereo not shown), the “Infection (%) at 600 ppm C2” value is listed as 15%.
Same read-out and setting: the figure for `CC(C)(C)C(O)C(CCCc1ccccc1Cl)n1cncn1` (stereo not shown) [drawing 19] is 7%.
Take `CC(C)(C)C(O)C(CCCc1ccccc1Cl)n1cncn1` (stereo not shown) [drawing 21]: the “Infection (%) at 600 ppm C2” value is reported as 10%.
Still for that read-out and setting: the figure for `CC(C)(C)C(O)C(CCCc1ccc(Cl)cc1)n1cncn1` (stereo not shown) [reference compound] is 70%.

Another assay relates to Phakopsora pachyrhizi. Kind of assay: Example G2: curative activity against soybean rust caused by Phakopsora pachyrhizi (greenhouse). The assay is classed as in vivo. Conditions: 600 ppm; soybean seedlings, curative spray two days after inoculation, assessed after a further 10 days; untreated plants 100% infected.
On to `CC(Cc1cc(F)ccc1F)CC(C(O)C(C)(C)C)n1cncn1` (mixture of isomers) [I.A26b], for which the infection is 0%.
On the same count and under the same terms, with `CC(Cc1ccc(F)cc1F)CC(C(O)C(C)(C)C)n1cncn1` (mixture of isomers) [I.A30a] the figure was 0%; with `CC(CCC(C(O)C(C)(C)C)n1cncn1)c1ccccc1F` (mixture of isomers) [I.A36b], 0%; with `CC(Cc1cccc(Cl)c1)CC(C(O)C(C)(C)C)n1cncn1` (mixture of isomers) [I.A39a], 0%.
The same measure, in the same setting: with `CC(C)(C)C(O)C(CCCc1cc(F)ccc1F)n1cncn1` (racemic) [I.A24b] the figure was 0%; with `CC(C)(C)C(O)C(CCCc1cccc(F)c1F)n1cncn1` (racemic) [I.A25b], 0%.
In the case of `CC(Cc1ccc(F)cc1F)CC(C(O)C(C)(C)C)n1cncn1` (stereo not shown) [I.A30b, 7-(2,4-difluorophenyl)-2,2,6-trimethyl-4-[1,2,4]triazol-1-ylheptan-3-ol], the infection is 0%.
